# Laboratory results published in ChEMBL document CHEMBL4665869, “New thiazolopyrimidine as anticancer agents: Synthesis, biological evaluation, DNA binding, molecular modeling and ADMET study” (Bioorg Med Chem Lett, 2020).
# Tests used:
# [1] = test system: NCI-H322M; assay: Growth inhibition of human NCI-H322M cells at 10 uM relative to control; assay type: functional; details: read-out: GI
# [2] = test system: SF-295; assay: Growth inhibition of human SF-295 cells at 10 uM relative to control; assay type: functional; details: read-out: GI
# [3] = target: DNA; assay: Displacement of methyl green from DNA (unknown origin) assessed as DNA intercalation after 24 hrs by colorimetric assay; assay type: nucleic-acid assay
# [4] = test system: TK-10; assay: Growth inhibition of human TK-10 cells at 10 uM relative to control; assay type: functional; details: read-out: GI
# [5] = test system: SF-268; assay: Growth inhibition of human SF-268 cells at 10 uM relative to control; assay type: functional; details: read-out: GI
# [6] = test system: Malme-3M; assay: Growth inhibition of human Malme-3M cells at 10 uM relative to control; assay type: functional; details: read-out: GI
# [7] = test system: 786-0; assay: Growth inhibition of human 786-0 cells at 10 uM relative to control; assay type: functional; details: read-out: GI
# [8] = test system: OVCAR-5; assay: Growth inhibition of human OVCAR-5 cells at 10 uM relative to control; assay type: functional; details: read-out: GI
# [9] = test system: RXF 393; assay: Growth inhibition of human RXF 393 cells at 10 uM relative to control; assay type: functional; details: read-out: GI
# [10] = test system: KM12; assay: Growth inhibition of human KM12 cells at 10 uM relative to control; assay type: functional; details: read-out: GI
# [11] = test system: OVCAR-8; assay: Growth inhibition of human OVCAR-8 cells at 10 uM relative to control; assay type: functional; details: read-out: GI
# [12] = test system: CCRF-CEM; assay: Growth inhibition of human CCRF-CEM cells at 10 uM relative to control; assay type: functional; details: read-out: GI
# [13] = test system: SF-539; assay: Growth inhibition of human SF-539 cells at 10 uM relative to control; assay type: functional; details: read-out: GI
# [14] = test system: NCI-H522; assay: Growth inhibition of human NCI-H522 cells at 10 uM relative to control; assay type: functional; details: read-out: GI
# [15] = test system: COLO 205; assay: Growth inhibition of human COLO 205 cells at 10 uM relative to control; assay type: functional; details: read-out: GI
# [16] = test system: MDA-MB-468; assay: Growth inhibition of human MDA-MB-468 cells at 10 uM relative to control; assay type: functional; details: read-out: GI
# [17] = test system: SN12C; assay: Growth inhibition of human SN12C cells at 10 uM relative to control; assay type: functional; details: read-out: GI
# [18] = test system: HCC 2998; assay: Growth inhibition of human HCC 2998 cells at 10 uM relative to control; assay type: functional; details: read-out: GI
# [19] = test system: LOX IMVI; assay: Growth inhibition of human LOX IMVI cells at 10 uM relative to control; assay type: functional; details: read-out: GI
# [20] = test system: HL-60(TB); assay: Growth inhibition of human HL-60(TB) cells at 10 uM relative to control; assay type: functional; details: read-out: GI
# [21] = test system: ACHN; assay: Growth inhibition of human ACHN cells at 10 uM relative to control; assay type: functional; details: read-out: GI
# [22] = test system: A549; assay: Growth inhibition of human A549 cells at 10 uM relative to control; assay type: functional; details: read-out: GI
# [23] = test system: DU-145; assay: Growth inhibition of human DU-145 cells at 10 uM relative to control; assay type: functional; details: read-out: GI
# [24] = test system: MDA-MB-435; assay: Growth inhibition of human MDA-MB-435 cells at 10 uM relative to control; assay type: functional; details: read-out: GI
# [25] = test system: CAKI-1; assay: Growth inhibition of human CAKI-1 cells at 10 uM relative to control; assay type: functional; details: read-out: GI
# [26] = test system: UO-31; assay: Growth inhibition of human UO-31 cells at 10 uM relative to control; assay type: functional; details: read-out: GI
# [27] = test system: K562; assay: Growth inhibition of human K562 cells at 10 uM relative to control; assay type: functional; details: read-out: GI
# [28] = test system: SK-MEL-28; assay: Growth inhibition of human SK-MEL-28 cells at 10 uM relative to control; assay type: functional; details: read-out: GI
# [29] = test system: MOLT-4; assay: Growth inhibition of human MOLT-4 cells at 10 uM relative to control; assay type: functional; details: read-out: GI
# [30] = test system: BT-549; assay: Growth inhibition of human BT-549 cells at 10 uM relative to control; assay type: functional; details: read-out: GI
# [31] = test system: SNB-19; assay: Growth inhibition of human SNB-19 cells at 10 uM relative to control; assay type: functional; details: read-out: GI
# [32] = test system: MCF7; assay: Growth inhibition of human MCF7 cells at 10 uM relative to control; assay type: functional; details: read-out: GI
# [33] = test system: SK-MEL-5; assay: Growth inhibition of human SK-MEL-5 cells at 10 uM relative to control; assay type: functional; details: read-out: GI
# [34] = test system: SR; assay: Growth inhibition of human SR cells at 10 uM relative to control; assay type: functional; details: read-out: GI
# [35] = test system: RPMI-8226; assay: Growth inhibition of human RPMI-8226 cells at 10 uM relative to control; assay type: functional; details: read-out: GI
# [36] = test system: OVCAR-4; assay: Growth inhibition of human OVCAR-4 cells at 10 uM relative to control; assay type: functional; details: read-out: GI
# [37] = test system: UACC-257; assay: Growth inhibition of human UACC-257 cells at 10 uM relative to control; assay type: functional; details: read-out: GI
# [38] = test system: SNB-75; assay: Growth inhibition of human SNB-75 cells at 10 uM relative to control; assay type: functional; details: read-out: GI
# [39] = test system: A498; assay: Growth inhibition of human A498 cells at 10 uM relative to control; assay type: functional; details: read-out: GI
# [40] = test system: T47D; assay: Growth inhibition of human T47D cells at 10 uM relative to control; assay type: functional; details: read-out: GI
# [41] = test system: IGROV-1; assay: Growth inhibition of human IGROV-1 cells at 10 uM relative to control; assay type: functional; details: read-out: GI
# [42] = test system: SK-OV-3; assay: Growth inhibition of human SK-OV-3 cells at 10 uM relative to control; assay type: functional; details: read-out: GI
# [43] = test system: SK-MEL-2; assay: Growth inhibition of human SK-MEL-2 cells at 10 uM relative to control; assay type: functional; details: read-out: GI
# [44] = test system: NCI/ADR-RES; assay: Growth inhibition of human NCI/ADR-RES cells at 10 uM relative to control; assay type: functional; details: read-out: GI
# [45] = test system: UACC-62; assay: Growth inhibition of human UACC-62 cells at 10 uM relative to control; assay type: functional; details: read-out: GI
# [46] = test system: HOP-62; assay: Growth inhibition of human HOP-62 cells at 10 uM relative to control; assay type: functional; details: read-out: GI
# [47] = test system: NCI-H23; assay: Growth inhibition of human NCI-H23 cells at 10 uM relative to control; assay type: functional; details: read-out: GI
# [48] = test system: M14; assay: Growth inhibition of human M14 cells at 10 uM relative to control; assay type: functional; details: read-out: GI
# [49] = test system: MDA-MB-231; assay: Growth inhibition of human MDA-MB-231 cells at 10 uM relative to control; assay type: functional; details: read-out: GI
# [50] = test system: PC-3; assay: Growth inhibition of human PC-3 cells at 10 uM relative to control; assay type: functional; details: read-out: GI
# [51] = test system: HT-29; assay: Growth inhibition of human HT-29 cells at 10 uM relative to control; assay type: functional; details: read-out: GI
# [52] = test system: HCT-116; assay: Growth inhibition of human HCT-116 cells at 10 uM relative to control; assay type: functional; details: read-out: GI
# [53] = test system: Hs-578T; assay: Growth inhibition of human Hs-578T cells at 10 uM relative to control; assay type: functional; details: read-out: GI
# [54] = test system: NCI-H226; assay: Growth inhibition of human NCI-H226 cells at 10 uM relative to control; assay type: functional; details: read-out: GI
# [55] = test system: HCT-15; assay: Growth inhibition of human HCT-15 cells at 10 uM relative to control; assay type: functional; details: read-out: GI
# [56] = test system: NCI-H460; assay: Growth inhibition of human NCI-H460 cells at 10 uM relative to control; assay type: functional; details: read-out: GI
# [57] = test system: SW-620; assay: Growth inhibition of human SW-620 cells at 10 uM relative to control; assay type: functional; details: read-out: GI
# [58] = test system: U-251; assay: Growth inhibition of human U-251 cells at 10 uM relative to control; assay type: functional; details: read-out: GI
smiles,measurement,setting,value
CCOC(=O)C1=CSC2=NC(/C=C/c3ccc(Cl)cc3)=CC(c3ccc(Cl)cc3)N12 (stereo not drawn),inhibition of growth at 10 µM,[1],< 10%
same,inhibition of growth at 10 µM,[2],< 10%
same,IC50,[3],79.28 µg/mL
same,inhibition of growth at 10 µM,[4],< 10%
same,inhibition of growth at 10 µM,[5],< 10%
same,inhibition of growth at 10 µM,[6],< 10%
same,inhibition of growth at 10 µM,[7],< 10%
same,inhibition of growth at 10 µM,[8],< 10%
same,inhibition of growth at 10 µM,[9],< 10%
same,inhibition of growth at 10 µM,[10],< 10%
same,inhibition of growth at 10 µM,[11],< 10%
same,inhibition of growth at 10 µM,[12],< 10%
same,inhibition of growth at 10 µM,[13],< 10%
same,inhibition of growth at 10 µM,[14],< 10%
same,inhibition of growth at 10 µM,[15],< 10%
same,inhibition of growth at 10 µM,[16],< 10%
same,inhibition of growth at 10 µM,[17],< 10%
same,inhibition of growth at 10 µM,[18],< 10%
same,inhibition of growth at 10 µM,[19],< 10%
same,inhibition of growth at 10 µM,[20],< 10%
same,inhibition of growth at 10 µM,[21],< 10%
same,inhibition of growth at 10 µM,[22],< 10%
same,inhibition of growth at 10 µM,[23],< 10%
same,inhibition of growth at 10 µM,[24],< 10%
same,inhibition of growth at 10 µM,[25],< 10%
same,inhibition of growth at 10 µM,[26],< 10%
same,inhibition of growth at 10 µM,[27],12.4%
same,inhibition of growth at 10 µM,[28],< 10%
same,inhibition of growth at 10 µM,[29],16.7%
same,inhibition of growth at 10 µM,[30],< 10%
same,inhibition of growth at 10 µM,[31],< 10%
same,inhibition of growth at 10 µM,[32],< 10%
same,inhibition of growth at 10 µM,[33],< 10%
same,inhibition of growth at 10 µM,[34],< 10%
same,inhibition of growth at 10 µM,[35],< 10%
same,inhibition of growth at 10 µM,[36],< 10%
same,inhibition of growth at 10 µM,[37],< 10%
same,inhibition of growth at 10 µM,[38],< 10%
same,inhibition of growth at 10 µM,[39],11.8%
same,inhibition of growth at 10 µM,[40],< 10%
same,inhibition of growth at 10 µM,[41],< 10%
same,inhibition of growth at 10 µM,[42],< 10%
same,inhibition of growth at 10 µM,[43],< 10%
same,inhibition of growth at 10 µM,[44],< 10%
same,inhibition of growth at 10 µM,[45],< 10%
same,inhibition of growth at 10 µM,[46],< 10%
same,inhibition of growth at 10 µM,[47],< 10%
same,inhibition of growth at 10 µM,[48],< 10%
same,inhibition of growth at 10 µM,[49],< 10%
same,inhibition of growth at 10 µM,[50],< 10%
same,inhibition of growth at 10 µM,[51],< 10%
same,inhibition of growth at 10 µM,[52],< 10%
same,inhibition of growth at 10 µM,[53],< 10%
same,inhibition of growth at 10 µM,[54],< 10%
same,inhibition of growth at 10 µM,[55],< 10%
same,inhibition of growth at 10 µM,[56],< 10%
same,inhibition of growth at 10 µM,[57],< 10%
same,inhibition of growth at 10 µM,[58],14.6%
